Test results from paper PMC9874818 (Archiv Der Pharmazie, 2022).
Starred links: 1 amine or outer side, 2 acyl side, 3 side chain; linkers in the order of their positions; H or OH if unused. Residues, ends and D or L forms follow the SMILES beside them. CO = O=C([*:1])[*:2]

System: SARS‐CoV‐2 spike (delta/omicron variant) pseudotyped particle
Assay: microbe, parasite or virus in culture
Assay type: cell-based
Conditions: for EC50: Severe acute respiratory syndrome coronavirus 2, A549-hACE2-TMPRSS2, read-out: EC50 SARS-CoV-2 entry inhibition
[1] = Severe acute respiratory syndrome coronavirus 2, A549-hACE2-TMPRSS2, read-out: SARS-CoV-2 viral entry inhibition

SMILES	EC50	inhibition at 100 µM [1]	inhibition at 50 µM [1]
CN1C2CCC1CC(OC(c1ccc(F)cc1)c1ccc(F)cc1)C2 (stereo not shown) [AHN 1‐055, difluorobenztropine]	> 50 µM	–	–
CC(C)[C@H](NC(=O)[C@H](CCCNC(=N)N)NC(=O)N[C@@H](Cc1ccccc1)C(=O)O)C(=O)N[C@H](C=O)CCCNC(=N)N [antipain, L‐Phe‐CO‐L‐Arg‐L‐Val‐L‐Arg‐H] ({Phe-CO}-Arg-Val-Arg-aldehyde)	–	81%	–
CN(C)C(=O)COC(=O)Cc1ccc(OC(=O)c2ccc(NC(=N)N)cc2)cc1 [camostat]	0.98 µM	–	97%
